ChEMBL document CHEMBL1201862, “PubChem BioAssay data set” (2004)
Counter-ions that a name gives are not always drawn.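 Test compounds were applied to cells in 96-well plates for 48 hours at 5 doses. GI50 = concentration required for 50% inhibition of growth.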 Activity calls are given as the source filed them. No stated cut-off is given here; in the data, active = GI50 up to about 1.1 µM and inactive = higher.

Key:
Test in all cases: inhibition of tumour cell growth, NCI panel, 48 h
MCF7 = test system: MCF7
HOP-92 = test system: HOP-92
ACHN = test system: ACHN
OVCAR-8 = test system: OVCAR-8
RPMI-8226 = test system: RPMI-8226
SN12C = test system: SN12C
SNB-19 = test system: SNB-19
CAKI-1 = test system: CAKI-1
SF-295 = test system: SF-295
EKVX = test system: EKVX
OVCAR-4 = test system: OVCAR-4
OVCAR-3 = test system: OVCAR-3
RXF 393 = test system: RXF 393
A549 = test system: A549
HOP-62 = test system: HOP-62
SW-620 = test system: SW-620
U-251 = test system: U-251
HCC 2998 = test system: HCC 2998
A498 = test system: A498

SMILES	GI50 (MCF7)	GI50 (HOP-92)	GI50 (ACHN)	GI50 (OVCAR-8)	GI50 (RPMI-8226)	GI50 (SN12C)	GI50 (SNB-19)	GI50 (CAKI-1)	GI50 (SF-295)	GI50 (EKVX)	GI50 (OVCAR-4)	GI50 (OVCAR-3)	GI50 (RXF 393)	GI50 (A549)	GI50 (HOP-62)	GI50 (SW-620)	GI50 (U-251)	GI50 (HCC 2998)	GI50 (A498)
FC(F)(F)c1ccc(/N=C/C=C(/Nc2ccc(C(F)(F)F)cc2)c2ccc(Cl)cc2)cc1	17.5 µM (inactive)	16.5 µM (inactive)	10.1 µM (inactive)	15.6 µM (inactive)	4.72 µM (inactive)	10.4 µM (inactive)	8.61 µM (inactive)	3.49 µM (inactive)	15.8 µM (inactive)	15.9 µM (inactive)	14 µM (inactive)	6.78 µM (inactive)	10.1 µM (inactive)	12.5 µM (inactive)	18.2 µM (inactive)	11 µM (inactive)	11.3 µM (inactive)	–	–
O=C(O)c1ccc(Nc2cnc3cc(C(F)(F)F)ccc3n2)cc1	38 µM (inactive)	–	34.1 µM (inactive)	52.1 µM (inactive)	35.2 µM (inactive)	85.5 µM (inactive)	60 µM (inactive)	> 100 µM (inactive)	89.3 µM (inactive)	40.6 µM (inactive)	–	34.5 µM (inactive)	46.9 µM (inactive)	42 µM (inactive)	90.2 µM (inactive)	69.8 µM (inactive)	48.2 µM (inactive)	30.2 µM (inactive)	–
O=C(O)C(C(C(=O)O)P(=O)(O)O)P(=O)(O)O (stereo not drawn)	> 100 µM (inactive)	86.1 µM (inactive)	> 100 µM (inactive)	> 100 µM (inactive)	> 100 µM (inactive)	–	> 100 µM (inactive)	–	–	> 100 µM (inactive)	> 100 µM (inactive)	> 100 µM (inactive)	–	> 100 µM (inactive)	–	> 100 µM (inactive)	> 100 µM (inactive)	> 100 µM (inactive)	> 100 µM (inactive)
CC1(C)OC([C@H](O)CO)C([C@H]2NCCS2)O1 (stereo partly drawn)	–	> 100 µM (inactive)	> 100 µM (inactive)	> 100 µM (inactive)	> 100 µM (inactive)	–	> 100 µM (inactive)	> 100 µM (inactive)	> 100 µM (inactive)	> 100 µM (inactive)	> 100 µM (inactive)	> 100 µM (inactive)	> 100 µM (inactive)	> 100 µM (inactive)	> 100 µM (inactive)	> 100 µM (inactive)	> 100 µM (inactive)	> 100 µM (inactive)	> 100 µM (inactive)
C#Cc1cccc(Nc2ncnc3cc(OCCOC)c(OCCOC)cc23)c1 [ERLOTINIB HYDROCHLORIDE]	–	4.05 µM (inactive)	0.109 µM (active)	7.23 µM (inactive)	55.3 µM (inactive)	< 0.01 µM (active)	< 0.01 µM (active)	< 0.01 µM (active)	16.2 µM (inactive)	–	27.2 µM (inactive)	–	–	1.59 µM (inactive)	31.3 µM (inactive)	> 100 µM (inactive)	29.4 µM (inactive)	–	–
CCOC(=O)c1nnn(CCCCO)c1C(=O)OCC	> 100 µM (inactive)	> 100 µM (inactive)	> 10 µM (inactive)	> 100 µM (inactive)	–	> 100 µM (inactive)	30.1 µM (inactive)	> 100 µM (inactive)	> 100 µM (inactive)	> 100 µM (inactive)	> 100 µM (inactive)	–	> 100 µM (inactive)	> 100 µM (inactive)	> 100 µM (inactive)	> 100 µM (inactive)	> 100 µM (inactive)	> 100 µM (inactive)	–
